Measured values published in patent US20240165116A1, “ROCK2 INHIBITOR FOR THE TREATMENT OF VIRAL INFECTION” (Graviton Bioscience B.V., priority 2021, published 2024).
Entries after “also recorded” stand apart in the source; their conditions may differ.

Key:
[1] = test system: SARS-CoV-2 (2019-nCoV/USA-WA1/2020 strain); assay: In vitro SARS-CoV-2 prevention model: viral RNA in supernatant by qPCR; type: cell-based; settings: Severe acute respiratory syndrome coronavirus 2; Calu-3 cells treated 2 h at 37° C., challenged with 10^2 PFU SARS-CoV-2 for 6 h, qPCR of supernatant at 48 h; calculated from best-fit values; read-out: EC50 (SARS-CoV-2 in supernatant, classical dose-response curve)
Experimental: FIG. 2. Efficacy: SARS-CoV-2 CPN in Supernatant. Immortalized human airway epithelial cells (Calu-3) were treated with the listed concentrations of the Formula XII compound for 2 h at 37° C. followed by challenge with SARS-CoV-2 for 6 h. After washing, the cells were maintained for 48 hours and viral infection was analyzed by qPCR of the supernatant. Each data point represents the mean of three replicates.
FIG. 3. Efficacy: Classical Dose-Response Curve. This figure provides the dose-response curve for the experiment described in Example 1 and FIG. 2.
A 50 mM stock solution of (6-(4-((4-(1H-pyrazol-4-yl)phenyl)amino)pyrimidin-2-yl)-1-methyl-1H-indol-2-yl)(3,3-difluoroazetidin-1-yl)methanone (Formula XII) in DMSO was diluted using PBS to Formula XII concentrations of 100 μM, 10 μM, 1 μM, 0.3 μM, 0.1 μM, and 0.03 μM. About 30,000 immortalized human airway epithelial cells (Calu-3) were grown to about 100,000 cells per well in a 96-well format. […]
Viral infection was analyzed by qPCR (qRT-PCR). […] Viral or host RNA levels in the supernatant were determined using the TaqPath™ 1-Step RT-qPCR Master Mix (Thermo Fisher) on CFX Connect Real-Time System (Bio-Rad) instrument using the following primers: Fwd: 5′-[…]-3; Rev: 5′-[…]-3′).
Datasets were analyzed and plotted in GraphPad Prism (version 9.0.2). […]

[2] = test system: SARS-CoV-2 (2019-nCoV/USA-WA1/2020 strain); assay: Viral load in lung lysates of SARS-CoV-2 challenged human ACE2 transgenic mice; type: in vivo; settings: 300 mg/kg daily via oral gavage in 0.5% CMC-Na; initial viral loads 100, 1000, 10,000 pfu; compared with vehicle and Remdesivir (25 mg/kg subcutaneously)
Experimental: FIGS. 6A, 6B, and 6C. Efficacy: Viral Load in Lung Lysates. […] Shown are viral copies/mg of lungs for initial viral loads of 100 pfu SARS-CoV2 (FIG. 6A), 1000 pfu SARS-CoV2 (FIG. 6B), and 10,000 pfu SARS-CoV2 (FIG. 6C). Groups from left to right: Vehicle, Formula XII (300 mg/kg), Remdesivir (RDV). Inserts: Formula XII (300 mg/kg) (left), Remdesivir (RDV) (right).
Human ACE2 transgenic mice from Jackson Laboratories (n=5 per group) were challenged at t=0 with SARS-CoV-2 at an initial viral load of 100 PFU, 1,000, or 10,000 pfu of 2019-nCoV/USA-WA1/2020 strain. This strain was isolated from an oropharyngeal swab from a patient with a respiratory illness who developed the clinical disease (COVID-19) in January 2020 in Washington, US (BEI Resources, NR-52281). […] The infected mice were dosed daily via oral gavage with (1) 0.5% sodium carboxymethyl cellulose (CMC-Na) (negative control), (2) 300 mg/kg Formula XII in 0.5% CMC-Na (test group), or (3) Remdesivir (RDV). RDV, an anti-viral reagent that acts as a nucleoside analog and inhibits the RNA-dependent RNA polymerase (RdRp) of coronaviruses including SARS-CoV-2, was used a positive control. […] The animals were monitored daily. […] The viral load in the lung was determined by qPCR detecting viral RNA in lung lysates.

Compound: Cn1c(C(=O)N2CC(F)(F)C2)cc2ccc(-c3nccc(Nc4ccc(-c5cn[nH]c5)cc4)n3)cc21 [Formula XII, (6-(4-((4-(1H-pyrazol-4-yl)phenyl)amino)pyrimidin-2-yl)-1-methyl-1H-indol-2-yl)(3,3-difluoroazetidin-1-yl)methanone]
- EC50 [1]: 124 nM
- Viral load in the lung (viral copies/mg of lungs, qPCR of lung lysates) [2]: significantly reduced viral load as compared to both the negative as well as the positive control; also recorded: reduces the spread of SARS-CoV2 in the lungs of mice in vivo
